Test system: Plasmodium falciparum
Assay: GSK_TCMDC: Inhibition of Plasmodium falciparum 3D7 in whole erythrocytes, using parasite LDH activity as an index of growth.
Format: functional, organism-based
Details: Plasmodium falciparum, 3D7

Compound | XC50
NC1CCN(Cc2cccc(-c3ccc(-c4nc5ccccc5[nH]4)s3)c2)C1 (stereo not drawn) | 727 nM
CCCCCCCn1c(=N)n(CC(O)c2ccc(Cl)c(Cl)c2)c2ccccc21 (stereo not drawn) | 782 nM
Cc1ccc(NC(=O)c2cccc(C#N)c2)cc1-c1ccc(C(=O)Nc2ccncc2)cc1 | 688 nM
Cn1c(/C=C/C(=O)NC2CCC(CCN3CCc4ccc(C#N)cc4CC3)CC2)cc2ccccc21 (stereo not drawn) | 733 nM
Cc1cccc(N2CCN(C3CCC(NC(=O)c4cc5ccccc5[nH]4)CC3)CC2)c1C (stereo not drawn) | 609 nM
FC(F)(F)c1ccc(COc2cc(Cl)ccc2Cn2ccnc2)cc1 | 649 nM
CC(C)(C)NCc1cc(Nc2ccnc3cc(Cl)ccc23)ccc1F | 30.3 nM
CCCc1cc(OC)c(CC2c3cc(O)c(Cl)cc3CCN2C)cc1OC (stereo not drawn) | 575 nM
CC(=O)Nc1ccc(C(=O)N2CCN(c3ccnc4cc(Cl)ccc34)CC2)cc1 | 909 nM
Cc1c[nH]c(-c2cccc(C(=O)NC3CCC(CCN4CCc5ccc(C#N)cc5CC4)CC3)c2)n1 (stereo not drawn) | 301 nM
O=C(N[C@H]1CCN(CCc2ccc(O[C@H]3CCNC3)c(Br)c2)C1)c1ccc(Cl)c(Cl)c1 | 658 nM
COc1cc(F)c2ncc(F)c([C@@H](O)CN3CCC(NCc4cc5c(cn4)OCCO5)CC3)c2c1 | 477 nM
O=C(CC1CCCCC1)NCC(NCCCNc1cc(=O)c2ccccc2[nH]1)c1cc(Br)cc(Br)c1 (stereo not drawn) | 1050 nM
CC(C)CCNCc1ccc(OCc2cccc(C(=O)Nc3ccccc3)c2)c(I)c1 | 288 nM
CCCCCCCCc1c(C)nc(C)c(C#N)c1O | 402 nM
CC(C)(C)NS(=O)(=O)c1cc(C(=O)N2CCC(CCN3CCC(O)(c4cccc(C(F)(F)F)c4)CC3)(c3cccc(F)c3)CC2)c(Cl)cc1F | 858 nM
O=C(NCc1ccc(F)cc1)Nc1ccc(-c2ccc(-c3nc4ccccc4[nH]3)cc2)cc1 | 90.7 nM
O=C(Cn1c(CCc2cccc(F)c2F)nc(=O)c2ccccc21)N(CCCN1CCCC1)Cc1ccc(-c2ccc(C(F)(F)F)cc2)cc1 | 941 nM
CC(=O)N/N=C/[C@H](CCc1ccccc1)NC(=O)[C@H](CC(C)C)NC(=O)c1cccc(OCCN2CCOCC2)c1 | 236 nM
CN1CC[C@@H](Oc2cc(CNC(=O)c3ccc(-c4ccc(Cl)cc4)s3)ccc2C(F)(F)F)C1 | 1030 nM
COc1ccc2[nH]ccc(=NN=Cc3cccc(F)c3)c2c1 | 750 nM
COc1c(O)cc2oc(-c3ccc(O)cc3)cc(=O)c2c1O [HISPIDULIN] | 771 nM
Cc1cc(OCCCN2CCCCC2C)ccc1NC(=O)COc1ccc(Cl)cc1C(=O)c1cc(Cl)cc(C#N)c1 (stereo not drawn) | 981 nM
COc1ccccc1C(C)NCC(=O)Nc1ccccc1Sc1ccccc1 (stereo not drawn) | 1100 nM
Oc1cc(-c2nc(-c3ccccc3)[nH]c2-c2ccncc2)ccc1Cl | 814 nM

Compound | XC50
CN1CC=C(c2c[nH]c3ccc(-c4ccccc4)cc23)CC1 | 775 nM
Cc1c(C2CCN(CCCCNC(=O)c3ccc(-c4ccc(C#N)cc4)cc3)CC2)c2ccccc2n1CCO | 995 nM
CCCN(C(=O)c1ccccc1C)c1nnc(-c2cccc(C)c2)s1 | 896 nM
Nc1cccc(CNCc2cccc(-c3ccc(-c4nc5cc(C(F)(F)F)ccc5[nH]4)cc3)c2)c1 | 360 nM
Fc1ccc2[nH]c(-c3cccc(-c4cccc(CNCCN5CCNCC5)c4)c3)nc2c1 | 842 nM
CCCC[C@@H](C(=O)NCc1ccccc1C(F)(F)F)N1C(=O)CCC1C(=O)Nc1ccc([N+](=O)[O-])cc1 (stereo partly drawn) | 848 nM
CC(Cc1ccc(OCc2ccc(CCN(C)C)cc2)cc1)NCCc1cccc(Cl)c1 (stereo not drawn) | 769 nM
O=C(C=Cc1ccc(-c2ccccc2)cc1)N1CCC(CCN2CCC(c3c[nH]c4ccccc34)CC2)CC1 | 1120 nM
CCS(=O)(=O)c1ccc(-c2cnc3[nH]cc(-c4ccc(N)cc4)c3c2)cc1 | 851 nM
CCn1cnc2c(N3CCCCS3(=O)=O)cc(C(=O)N[C@@H](Cc3ccccc3)[C@H](O)CNC3CCOCC3)cc21 | 712 nM
CCCCCCn1c(Sc2ccc(C#N)c([N+](=O)[O-])c2)nnc1-c1ccc(OC)cc1 | 849 nM
O=c1cc(NCCCNCc2cccc(SC(F)(F)F)c2)[nH]c2ccccc12 | 725 nM
N=C(N)NCCCN(Cc1ccccc1)c1ccccc1 | 579 nM
c1ccc(-c2ccc3c(Nc4ccc5[nH]ccc5c4)ccnc3c2)nc1 | 943 nM
CCNc1cc(C(=O)N[C@@H](Cc2ccccc2)[C@H](O)CN[C@@H]2CCc3ccccc32)cc(N2CCCCS2(=O)=O)c1 | 555 nM
Cc1cc2nc(-c3ccc(C(=O)NC4CCN(Cc5ccccc5)CC4)cc3)[nH]c2cc1C | 743 nM
O=c1cc(NCCCCNCc2cccc(Cl)c2)[nH]c2ccccc12 | 743 nM
CN(CCN1CCCC1)c1nc2cc(-n3cnc4cc(-c5ccc(Cl)cc5)sc4c3=O)ccc2[nH]1 | 824 nM
Cc1ccccc1N1CCN(c2ccc(C(=O)NC3CC3)cn2)CC1 | 459 nM
COc1ccc(CCNCC(O)c2cccc(Br)c2)c(Cl)c1OC (stereo not drawn) | 1040 nM
CN1CCC(c2ccc(NC(=O)c3ccc(-c4cccc(C(F)(F)F)c4)o3)cc2)CC1 | 1130 nM
CCOC(C(=O)OCCN(C(C)C)C(C)C)(c1ccccc1)c1ccccc1 | 874 nM
CC(CON1C(N)=NC(N)=NC1(C)C)Cc1ccc(Cl)cc1Cl (stereo not drawn) | 3.2 nM
CCOc1cc(C(=O)NCCN(C(C)C)C(C)C)ccc1-c1nc2cc(Cl)ccc2[nH]1 | 778 nM
Cc1ccc(C2CC(=O)CC(c3ccccn3)C2[N+](=O)[O-])cc1 (stereo not drawn) | 859 nM

Compound | XC50
CN(C)CCC(=O)c1ccccc1 | 335 nM
Cc1cccc2nc(-c3ccc(-c4cccc(CN5CCC(CO)CC5)c4)s3)[nH]c12 | 935 nM
O=C(Nc1cc(=O)[nH]c2nc(-c3ccccc3)nn12)C1CCCCC1 | 416 nM
CC(C)(C)OC(=O)[C@H](CC(N)=O)NC(=O)c1ccc(-c2ccc(-c3nc4cc(C(F)(F)F)ccc4[nH]3)s2)cc1 | 271 nM
COc1cc2nc(N3CCN(C(=O)c4ccco4)CC3)nc(NCc3ccccc3)c2cc1OC | 167 nM
c1ccc(COc2ccccc2COc2ccccc2-c2ccc3cccnc3n2)cc1 | 921 nM
Cc1c(Cl)cccc1N=C(S)NN=Cc1ccccn1 | 603 nM
COc1cc(C(=O)N2CCOC(CCN3CCC[C@H]3C(=O)Nc3ccccc3)(c3ccc(Cl)c(Cl)c3)C2)cc(OC)c1OC (stereo partly drawn) | 733 nM
O=C1c2cc(I)ccc2SC1c1ccccc1 (stereo not drawn) | 817 nM
CS(=O)(=O)c1cc2c(Nc3ccc(N4CCOCC4)cc3)c(C(N)=O)cnc2cc1Br | 249 nM
CC(C)Sc1nc2c(c(=O)n1Cc1ccco1)C1(CCCCC1)Cc1ccccc1-2 | 251 nM
Cc1cccc(CNc2nc(C)cc(NCCC(=O)Nc3ccccc3)n2)c1 | 1050 nM
Nc1nc(N)c2c3c(cnc2n1)CCCC3 | 770 nM
CCc1ccc(C2CCN(CCCCNC(=O)c3ccc(NC(=O)c4ccc(Cl)cc4)cc3)CC2)cc1 | 646 nM
Cc1noc(C)c1-c1cccc(CNCc2cccc(-c3csc(-c4nc5ccccc5[nH]4)c3)c2)c1 | 263 nM
CC1(C)NC(N)=NC(=N)N1OCc1cccs1 | 3.2 nM
Cc1cnc(C(=O)Nc2cccc(-c3csc(-c4nc5ccccc5[nH]4)c3)c2)cn1 | 275 nM
COC(=O)c1ccc(CC(C)NCC(O)c2cccc(C(F)(F)F)c2)cc1F (stereo not drawn) | 1060 nM
O=C(N1CCN(c2cccc(C(F)(F)F)c2)CC1)C(Cl)(Cl)Cl | 887 nM
C(=NN=c1cc[nH]c2ccccc12)c1ccncc1 | 743 nM
CCOc1cc(Cc2cnc(N)nc2N)cc(Br)c1OC | 1440 nM
COc1ccc(NC(=O)c2ccc(Br)c(C)c2)cc1N1CCN(CCCCc2ccccc2)CC1 | 817 nM
CC(=O)N1N=C(c2ccc(Cl)cc2)Sc2c1nc(C1CCCCC1)n2C(C)=O | 249 nM
